For assay [1], the system named is P-P70S6K (T389). Put plainly: Cell based AlphaLISA assay, inhibition of P-P70S6K (T389) (mTORC1 substrate phosphorylation) in MDA-MB-468 cells. As to conditions: Homo sapiens, 4 h, AlphaLISA, two to four hours at 37° C., read-out: pIC50 for Inhibition of mTORC1 and mTORC2 Substrate Phosphorylation, P-P70S6K-(T389) (converted). A digest of the protocol: (§1)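 Compound incubation stopped by buffer removal plus kit lysis buffer; lysates processed per kit protocol; Alpha signal read in duplicate. IC50: normalized regression fit, control-based normalization.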
Background: In Alpha technology, singlet oxygen from a donor bead excites a nearby acceptor bead.

In assay [2] the test system is P-4E-BP1 (T37/46). Briefly: Cell based AlphaLISA assay, inhibition of P-4E-BP1 (T37/46) (mTORC1 substrate phosphorylation) in MDA-MB-468 cells. As to conditions: Homo sapiens, MDA-MB-468, 4 h, AlphaLISA, two to four hours at 37° C., read-out: pIC50 for Inhibition of mTORC1 and mTORC2 Substrate Phosphorylation, P-4E-BP1-(T37/46) (converted). A digest of the protocol:
as §1

Assay [3] concerns P-Akt (S473). Briefly: Cell based AlphaLISA assay, inhibition of P-Akt (S473) (mTORC2 substrate phosphorylation) in MDA-MB-468 cells. As to conditions: Homo sapiens, MDA-MB-468, 4 h, AlphaLISA, two to four hours at 37° C., read-out: pIC50 for Inhibition of mTORC1 and mTORC2 Substrate Phosphorylation, p-AKT 1/2/3 -(S473) (converted). Put shortly: as §1

Some results are limits rather than exact numbers.

For `CO[C@H]1C[C@@H]2CC[C@@H](C)[C@@](O)(O2)C(=O)C(=O)N2CCCC[C@H]2C(=O)O[C@H]([C@H](C)C[C@@H]2CC[C@H](n3cc(COC(=O)NCCOCCOCCOCCOCCC(=O)NCc4cnc(N5CCN(c6ncc(C(=O)NCCCCn7nc(-c8ccc9oc(N)nc9c8)c8c(N)ncnc87)cn6)CC5)nc4)nn3)[C@H](OC)C2)CC(=O)[C@H](C)/C=C(\C)[C@@H](O)[C@@H](OC)C(=O)[C@H](C)C[C@H](C)/C=C/C=C/C=C/1C` [Example 185], the IC50 is less than 1 nM in assay [1], less than 3.16 nM in assay [2] and 3.16 to 31.6 nM in assay [3].
`CO[C@H]1C[C@@H]2CC[C@@H](C)[C@@](O)(O2)C(=O)C(=O)N2CCCC[C@H]2C(=O)O[C@H]([C@H](C)C[C@@H]2CC[C@H](n3nncc3-c3cccc(-c4cnc(N5CCN(S(=O)(=O)CCc6cn(CCOCCOCCC(=O)NCCCCn7nc(-c8ccc9oc(N)nc9c8)c8c(N)ncnc87)nn6)CC5)nc4)c3)[C@H](OC)C2)CC(=O)[C@H](C)/C=C(\C)[C@@H](O)[C@@H](OC)C(=O)[C@H](C)C[C@H](C)/C=C/C=C/C=C/1C` [Example 36]: the IC50 is less than 1 nM in assay [1], 3.16 to 31.6 nM in assay [2] and 3.16 to 31.6 nM in assay [3].
For `CO[C@H]1C[C@@H]2CC[C@@H](C)[C@@](O)(O2)C(=O)C(=O)N2CCCC[C@H]2C(=O)O[C@H]([C@H](C)C[C@@H]2CC[C@H](n3cc(-c4cccc(C(=O)NCCOCCOCCOCCOCCC(=O)NCCOCCOCCOCCOCCC(=O)NCCCCn5nc(-c6ccc7oc(N)nc7c6)c6c(N)ncnc65)c4)nn3)[C@H](OC)C2)CC(=O)[C@H](C)/C=C(\C)[C@@H](O)[C@@H](OC)C(=O)[C@H](C)C[C@H](C)/C=C/C=C/C=C/1C` [Example 141], the IC50 was 1 to 10 nM in assay [1], 3.16 to 31.6 nM in assay [2] and 3.16 to 31.6 nM in assay [3].
Take `CO[C@H]1C[C@@H]2CC[C@@H](C)[C@@](O)(O2)C(=O)C(=O)N2CCCC[C@H]2C(=O)O[C@H]([C@H](C)C[C@@H]2CC[C@@H](O)[C@H](OC)C2)C[C@@H](O)[C@H](C)/C=C(\C)[C@@H](O)[C@@H](OC)C(=NOCc2cn(-c3cnc(N4CCN(c5ncc(C(=O)NCCOCCOCCC(=O)NCCCCn6nc(-c7ccc8oc(N)nc8c7)c7c(N)ncnc76)cn5)CC4)nc3)nn2)[C@H](C)C[C@H](C)/C=C/C=C/C=C/1C` [Example 192]: the IC50 in assay [1] was less than 1 nM; in assay [2], 3.16 to 31.6 nM; in assay [3], greater than 1000 nM.
For `CO[C@H]1C[C@@H]2CC[C@@H](C)[C@@](O)(O2)C(=O)C(=O)N2CCCC[C@H]2C(=O)O[C@H]([C@H](C)C[C@@H]2CC[C@@H](OCc3cccc(-c4cnc(N5CCN(C(=O)CCc6cn(CCOCCOCCOCCC(=O)NCCCCn7nc(-c8ccc9oc(N)nc9c8)c8c(N)ncnc87)nn6)CC5)nc4)c3)[C@H](OC)C2)CC(=O)[C@H](C)/C=C(\C)[C@@H](O)[C@@H](OC)C(=O)[C@H](C)C[C@H](C)/C=C/C=C/C=C/1C` [Example 46], in that order: less than 1 nM, less than 3.16 nM and 3.16 to 31.6 nM.
Regarding `CO[C@H]1C[C@@H]2CC[C@@H](C)[C@@](O)(O2)C(=O)C(=O)N2CCCC[C@H]2C(=O)O[C@H]([C@H](C)C[C@@H]2CC[C@H](n3cc(-c4cnc(N5CCN(c6ncc(C(=O)NCCOCCOCCC(=O)NCCCCn7nc(-c8cc9cc(O)ccc9[nH]8)c8c(N)ncnc87)cn6)CC5)nc4)nn3)[C@H](OC)C2)CC(=O)[C@H](C)/C=C(\C)[C@@H](O)[C@@H](OC)C(=O)[C@H](C)C[C@H](C)/C=C/C=C/C=C/1C` [Example 112], the IC50 is less than 1 nM in assay [1], greater than 1000 nM in assay [2] and greater than 1000 nM in assay [3].
On to `CO/N=C1/C[C@@H]([C@H](C)C[C@@H]2CC[C@H](n3cc(CCCC(=O)NCCOCCOCCOCCC(=O)NCCOCCOCCOCCC(=O)NCCCCn4nc(-c5cc6cc(O)ccc6[nH]5)c5c(N)ncnc54)nn3)[C@H](OC)C2)OC(=O)[C@@H]2CCCCN2C(=O)C(=O)[C@]2(O)O[C@@H](CC[C@H]2C)C[C@H](OC)/C(C)=C/C=C/C=C/[C@@H](C)C[C@@H](C)C(=O)[C@H](OC)[C@H](O)/C(C)=C/[C@H]1C` [Example 172], for which the IC50 in assay [1] was 10 to 1000 nM; in assay [2], greater than 1000 nM; in assay [3], greater than 1000 nM.
With `CO[C@H]1C[C@@H]2CC[C@@H](C)[C@@](O)(O2)C(=O)C(=O)N2CCCC[C@H]2C(=O)O[C@H]([C@H](C)C[C@@H]2CC[C@H](n3nncc3-c3cccc(-c4cnc(N5CCN(Cc6cn(CCOCCOCCOCCOCCC(=O)NCCCCn7nc(-c8ccc9oc(N)nc9c8)c8c(N)ncnc87)nn6)CC5)nc4)c3)[C@H](OC)C2)CC(=O)[C@H](C)/C=C(\C)[C@@H](O)[C@@H](OC)C(=O)[C@H](C)C[C@H](C)/C=C/C=C/C=C/1C` [Example 30], the values for the IC50 in assay [1], in assay [2] and in assay [3] were less than 1 nM, less than 3.16 nM and 3.16 to 31.6 nM, respectively.
As to `CO[C@H]1C[C@@H]2CC[C@@H](C)[C@@](O)(O2)C(=O)C(=O)N2CCCC[C@H]2C(=O)O[C@H]([C@H](C)C[C@@H]2CC[C@@H](OCCCCc3cn(CCOCCOCCOCCOCCOCCOCCOCCOCCC(=O)NCCS(=O)(=O)c4ccc(C(=O)N5CCOc6ccc(-c7ccc(N)nc7)cc6C5)c(C)c4F)nn3)[C@H](OC)C2)CC(=O)[C@H](C)/C=C(\C)[C@@H](O)[C@@H](OC)C(=O)[C@H](C)C[C@H](C)/C=C/C=C/C=C/1C` [Example 96], the IC50 in assay [1] was less than 1 nM; in assay [2] it was less than 3.16 nM; in assay [3] it was 3.16 to 31.6 nM.
Take `CO[C@H]1C[C@@H]2CC[C@@H](C)[C@@](O)(O2)C(=O)C(=O)N2CCCC[C@H]2C(=O)O[C@H]([C@H](C)C[C@@H]2CC[C@H](n3cc(COC(=O)NCCOCCOCCOCCOCCC(=O)NCc4cnc(N5CCN(c6ncc(C(=O)NCCCCn7nc(-c8cc9cc(O)ccc9[nH]8)c8c(N)ncnc87)cn6)CC5)nc4)nn3)[C@H](OC)C2)CC(=O)[C@H](C)/C=C(\C)[C@@H](O)[C@@H](OC)C(=O)[C@H](C)C[C@H](C)/C=C/C=C/C=C/1C` [Example 186]: the values for the IC50 in assay [1], in assay [2] and in assay [3] were less than 1 nM, 3.16 to 31.6 nM and 31.6 to 1000 nM, respectively.
For `CO[C@H]1C[C@@H]2CC[C@@H](C)[C@@](O)(O2)C(=O)C(=O)N2CCCC[C@H]2C(=O)O[C@H]([C@H](C)C[C@@H]2CC[C@@H](OCCCCc3cn(CCOCCOCCOCCOCCOCCOCCOCCOCCC(=O)NCCCCn4nc(-c5ccc6oc(N)nc6c5)c5c(N)ncnc54)nn3)[C@H](OC)C2)C[C@@H](OC)[C@H](C)/C=C(\C)[C@@H](O)[C@@H](OC)C(=O)[C@H](C)C[C@H](C)/C=C/C=C/C=C/1C` [Example 77], in that order: less than 1 nM, less than 3.16 nM and 3.16 to 31.6 nM.
For `CO[C@H]1C[C@@H]2CC[C@@H](C)[C@@](O)(O2)C(=O)C(=O)N2CCCC[C@H]2C(=O)O[C@H]([C@H](C)C[C@@H]2CC[C@H](n3cc(COC(=O)NCCOCCOCCOCCC(=O)NCCOCCOCCC(=O)NCCCCn4nc(-c5cc6cc(O)ccc6[nH]5)c5c(N)ncnc54)nn3)[C@H](OC)C2)C/C(=N/OCc2ccccc2)[C@H](C)/C=C(\C)[C@@H](O)[C@@H](OC)C(=O)[C@H](C)C[C@H](C)/C=C/C=C/C=C/1C` [Example 155], the IC50 in assay [1], in assay [2] and in assay [3] was greater than 1000 nM each time.
